# Reference: paper PMC9481151, “Discovery of new symmetrical and asymmetrical nitrile-containing 1,4-dihydropyridine derivatives as dual kinases and P-glycoprotein inhibitors: synthesis, in vitro assays, and in silico studies” (Journal of Enzyme Inhibition and Medicinal Chemistry, 2022)
# Experiments:
# [1] = system: SK-MEL-5; test: NCI single dose (10 µM) SRB screen; assay type: cell-based, human; conditions: melanoma, 48 h
# [2] = system: MOLT-4; test: NCI single dose (10 µM) SRB screen; assay type: cell-based, human; conditions: leukaemia, 48 h
# [3] = system: OVCAR-5; test: NCI single dose (10 µM) SRB screen; assay type: cell-based, human; conditions: ovarian cancer, 48 h
# [4] = system: HL-60(TB); test: NCI single dose (10 µM) SRB screen; assay type: cell-based, human; conditions: leukaemia, 48 h
# [5] = system: 786-0; test: NCI single dose (10 µM) SRB screen; assay type: cell-based, human; conditions: renal cancer, 48 h
# [6] = system: HCT-116; test: NCI single dose (10 µM) SRB screen; assay type: cell-based, human; conditions: colon cancer, 48 h
# [7] = system: KM12; test: NCI single dose (10 µM) SRB screen; assay type: cell-based, human; conditions: colon cancer, 48 h
# [8] = system: NCI-H522; test: NCI single dose (10 µM) SRB screen; assay type: cell-based, human; conditions: non-small cell lung cancer, 48 h
# [9] = system: SNB-19; test: NCI single dose (10 µM) SRB screen; assay type: cell-based, human; conditions: CNS cancer, 48 h
# [10] = system: SR; test: NCI single dose (10 µM) SRB screen; assay type: cell-based, human; conditions: leukaemia, 48 h
# [11] = system: OVCAR-8; test: NCI single dose (10 µM) SRB screen; assay type: cell-based, human; conditions: ovarian cancer, 48 h
# [12] = system: A498; test: NCI single dose (10 µM) SRB screen; assay type: cell-based, human; conditions: renal cancer, 48 h
# [13] = system: LOX IMVI; test: NCI single dose (10 µM) SRB screen; assay type: cell-based, human; conditions: melanoma, 48 h
# [14] = system: COLO 205; test: NCI single dose (10 µM) SRB screen; assay type: cell-based, human; conditions: colon cancer, 48 h
# [15] = system: Aspergillus flavus; test: Agar well diffusion method
# [16] = system: SN12C; test: NCI single dose (10 µM) SRB screen; assay type: cell-based, human; conditions: renal cancer, 48 h
# [17] = system: HT29; test: NCI single dose (10 µM) SRB screen; assay type: cell-based, human; conditions: colon cancer, 48 h
# [18] = system: SNB-75; test: NCI single dose (10 µM) SRB screen; assay type: cell-based, human; conditions: CNS cancer, 48 h
# [19] = system: Escherichia coli; test: Agar well diffusion method; conditions: relative to ciprofloxacin
# [20] = system: UACC-257; test: NCI single dose (10 µM) SRB screen; assay type: cell-based, human; conditions: melanoma, 48 h
# [21] = system: SW-620; test: NCI single dose (10 µM) SRB screen; assay type: cell-based, human; conditions: colon cancer, 48 h
# [22] = system: RPMI-8226; test: NCI single dose (10 µM) SRB screen; assay type: cell-based, human; conditions: leukaemia, 48 h
# [23] = system: CAKI-1; test: NCI single dose (10 µM) SRB screen; assay type: cell-based, human; conditions: renal cancer, 48 h
# [24] = system: ACHN; test: NCI single dose (10 µM) SRB screen; assay type: cell-based, human; conditions: renal cancer, 48 h
# [25] = system: Staphylococcus aureus; test: Agar well diffusion method
# [26] = system: MDA-MB-435; test: NCI single dose (10 µM) SRB screen; assay type: cell-based, human; conditions: melanoma, 48 h
# [27] = system: NCI-H23; test: NCI single dose (10 µM) SRB screen; assay type: cell-based, human; conditions: non-small cell lung cancer, 48 h
# [28] = system: MDA-MB-468; test: NCI single dose (10 µM) SRB screen; assay type: cell-based, human; conditions: breast cancer, 48 h
# [29] = system: Bacillus subtilis; test: Agar well diffusion method
# [30] = system: DU-145; test: NCI single dose (10 µM) SRB screen; assay type: cell-based, human; conditions: prostate cancer, 48 h
# [31] = system: A549/ATCC; test: NCI single dose (10 µM) SRB screen; assay type: cell-based, human; conditions: non-small cell lung cancer, 48 h
# [32] = system: CCRF-CEM; test: NCI single dose (10 µM) SRB screen; assay type: cell-based, human; conditions: leukaemia, 48 h
# [33] = system: IGROV1; test: NCI single dose (10 µM) SRB screen; assay type: cell-based, human; conditions: ovarian cancer, 48 h
# [34] = system: OVCAR-3; test: NCI single dose (10 µM) SRB screen; assay type: cell-based, human; conditions: ovarian cancer, 48 h
# [35] = system: NCI 60 cancer cell lines; test: NCI single dose (10 µM) SRB screen, mean over panel; assay type: cell-based, human; conditions: mean over 60 cell lines, 48 h
# [36] = system: NCI-H226; test: NCI single dose (10 µM) SRB screen; assay type: cell-based, human; conditions: non-small cell lung cancer, 48 h
# [37] = system: SF-268; test: NCI single dose (10 µM) SRB screen; assay type: cell-based, human; conditions: CNS cancer, 48 h
# [38] = system: NCI/ADR-RES; test: NCI single dose (10 µM) SRB screen; assay type: cell-based, human; conditions: ovarian cancer, 48 h
# [39] = system: SK-OV-3; test: NCI single dose (10 µM) SRB screen; assay type: cell-based, human; conditions: ovarian cancer, 48 h
# [40] = system: OVCAR-4; test: NCI single dose (10 µM) SRB screen; assay type: cell-based, human; conditions: ovarian cancer, 48 h
# [41] = system: PC-3; test: NCI single dose (10 µM) SRB screen; assay type: cell-based, human; conditions: prostate cancer, 48 h
# [42] = system: NCI-H322M; test: NCI single dose (10 µM) SRB screen; assay type: cell-based; conditions: non-small cell lung cancer, 48 h
# [43] = system: SF-539; test: NCI single dose (10 µM) SRB screen; assay type: cell-based, human; conditions: CNS cancer, 48 h
# [44] = system: U251; test: NCI single dose (10 µM) SRB screen; assay type: cell-based, human; conditions: CNS cancer, 48 h
# [45] = system: M14; test: NCI single dose (10 µM) SRB screen; assay type: cell-based, human; conditions: melanoma, 48 h
# [46] = system: SF-295; test: NCI single dose (10 µM) SRB screen; assay type: cell-based, human; conditions: CNS cancer, 48 h
# [47] = system: MALME-3M; test: NCI single dose (10 µM) SRB screen; assay type: cell-based, human; conditions: melanoma, 48 h
# [48] = system: SK-MEL-28; test: NCI single dose (10 µM) SRB screen; assay type: cell-based, human; conditions: melanoma, 48 h
# [49] = system: NCI-H460; test: NCI single dose (10 µM) SRB screen; assay type: cell-based, human; conditions: non-small cell lung cancer, 48 h
# [50] = system: RXF 393; test: NCI single dose (10 µM) SRB screen; assay type: cell-based, human; conditions: renal cancer, 48 h
# [51] = system: MCF7; test: NCI single dose (10 µM) SRB screen; assay type: cell-based, human; conditions: breast cancer, 48 h
# [52] = system: TK-10; test: NCI single dose (10 µM) SRB screen; assay type: cell-based, human; conditions: renal cancer, 48 h
smiles,measurement,setting,value
"CC1=C(C(=O)OC(C)C)C(c2cccc(C#N)c2)C(C(=O)OC(C)C)=C(C)N1 [Compound 1c, Diisopropyl 4-(3-cyanophenyl)-2,6-dimethyl-1,4-dihydropyridine-3,5-dicarboxylate]",GI% SK-MEL-5,[1],– (Only GI% ≥ 10 are shown)
same,GI% MOLT-4,[2],17%
same,GI% OVCAR-5,[3],– (Only GI% ≥ 10 are shown)
same,GI% HL-60(TB),[4],29%
same,GI% 786-0,[5],16%
same,GI% HCT-116,[6],13%
same,GI% KM12,[7],– (Only GI% ≥ 10 are shown)
same,GI% NCI-H522,[8],11%
same,GI% SNB-19,[9],– (Only GI% ≥ 10 are shown)
same,GI% SR,[10],18%
same,GI% OVCAR-8,[11],– (Only GI% ≥ 10 are shown)
same,GI% A498,[12],– (Only GI% ≥ 10 are shown)
same,GI% LOX IMVI,[13],– (Only GI% ≥ 10 are shown)
same,GI% COLO 205,[14],– (Only GI% ≥ 10 are shown)
same,zone of inhibition at 1000 µg/mL,"[15]; Aspergillus flavus, 24 h, read-out: Diameter of inhibition zone, A. flavus",13 mm
same,"% activity index, A. flavus",[15]; relative to clotrimazole,52%
same,GI% SN12C,[16],– (Only GI% ≥ 10 are shown)
same,GI% HT29,[17],– (Only GI% ≥ 10 are shown)
same,GI% SNB-75,[18],20%
same,"% activity index, E. coli",[19],– (Values below 25 are of limited value and not shown as they refer either to inactive or non-diffusing compounds)
same,GI% UACC-257,[20],– (Only GI% ≥ 10 are shown)
same,GI% SW-620,[21],– (Only GI% ≥ 10 are shown)
same,GI% RPMI-8226,[22],17%
same,GI% CAKI-1,[23],19%
same,GI% ACHN,[24],– (Only GI% ≥ 10 are shown)
same,zone of inhibition at 1000 µg/mL,"[25]; Staphylococcus aureus, 24 h, read-out: Diameter of inhibition zone, S. aureus",11 mm
same,"% activity index, S. aureus",[25]; relative to ciprofloxacin,45.8%
same,GI% MDA-MB-435,[26],– (Only GI% ≥ 10 are shown)
same,GI% NCI-H23,[27],– (Only GI% ≥ 10 are shown)
same,GI% MDA-MB-468,[28],22%
same,zone of inhibition at 1000 µg/mL,"[29]; Bacillus subtilis, 24 h, read-out: Diameter of inhibition zone, B. subtilis",6 mm
same,"% activity index, B. subtilis",[29]; relative to ciprofloxacin,26.1%
same,GI% DU-145,[30],– (Only GI% ≥ 10 are shown)
same,GI% A549/ATCC,[31],11%
same,GI% CCRF-CEM,[32],– (Only GI% ≥ 10 are shown)
same,GI% IGROV1,[33],– (Only GI% ≥ 10 are shown)
same,GI% OVCAR-3,[34],– (Only GI% ≥ 10 are shown)
same,Mean GI%,[35],6%
same,GI% NCI-H226,[36],– (Only GI% ≥ 10 are shown)
same,GI% SF-268,[37],– (Only GI% ≥ 10 are shown)
same,GI% NCI/ADR-RES,[38],– (Only GI% ≥ 10 are shown)
same,GI% SK-OV-3,[39],– (Only GI% ≥ 10 are shown)
same,GI% OVCAR-4,[40],– (Only GI% ≥ 10 are shown)
same,GI% PC-3,[41],29%
same,GI% NCI-H322M,[42],– (Only GI% ≥ 10 are shown)
same,GI% SF-539,[43],– (Only GI% ≥ 10 are shown)
same,GI% U251,[44],– (Only GI% ≥ 10 are shown)
same,GI% M14,[45],– (Only GI% ≥ 10 are shown)
same,GI% SF-295,[46],– (Only GI% ≥ 10 are shown)
same,GI% MALME-3M,[47],– (Only GI% ≥ 10 are shown)
same,GI% SK-MEL-28,[48],– (Only GI% ≥ 10 are shown)
same,GI% NCI-H460,[49],– (Only GI% ≥ 10 are shown)
same,GI% RXF 393,[50],– (Only GI% ≥ 10 are shown)
same,GI% MCF7,[51],11%
same,GI% TK-10,[52],– (Only GI% ≥ 10 are shown)
